The values below come from US20160083391A1, “TRICYCLIC PIPERAZINE DERIVATIVE” (Sunovion Pharmaceuticals Inc., priority 2014, published 2016).

The structures appear in SMILES notation. A value given as a limit tells only on which side of the number the result lay.

In the experiment the test system is PDE1. As to the kind of experiment: In vitro HTRF PDE1 inhibition assay. It counts as biochemical. The conditions noted are these: HTRF cGMP assay, 100 nM cyclic GMP, PDE (1A3, 1B or 1C) with calmodulin, 45 minutes at 37° C.; isoform of the tabulated values not stated. The essentials: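 HTRF cGMP competition assay: PDE1A3, 1B or 1C with calmodulin acting on 100 nM cGMP in 1% DMSO, pH 7.4 buffer with Ca2+ and Mg2+, 45 min at 37 °C. Remaining cGMP detected with d2-cGMP and anti-cGMP cryptate (665/615 nm); IC50 reported as banded categories.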
Molecule `CC(C)Cn1ncc2c(=O)n3c(nc21)CN(c1ccc(Cl)cc1)CC3` [Compound I-92, 8-(4-Chlorophenyl)-1-isobutyl-6,7,8,9-tetrahydropyrazino[1,2-a]pyrazolo[3,4-d]pyrimidin-4(1H)-one] registered a 50% inhibitory concentration (IC50) of under 1000 nM.

As for `CC1c2nc3c(cnn3C(C)C)c(=O)n2CCN1Cc1ccccc1` (racemic) [Compound I-32, (±)-8-Benzyl-1-isopropyl-9-methyl-6,7,8,9-tetrahydropyrazino[1,2-a]pyrazolo[3,4-d]pyrimidin-4(1H)-one], the IC50 was over 10000 nM.

The molecule `COc1ccc(CN2CCn3c(nc4c(cnn4C4CCCC4)c3=O)C2C)cc1` (racemic) [Compound I-118, (±)-1-Cyclopentyl-8-(4-methoxybenzyl)-9-methyl-6,7,8,9-tetrahydropyrazino[1,2-a]pyrazolo[3,4-d]pyrimidin-4(1H)-one] registered an IC50 of 1000 to 10000 nM.

As for `CC(C)(C)n1ncc2c(=O)n3c(nc21)CN(c1ccc(Cl)cc1)CC3` [Compound I-247, 1-(tert-Butyl)-8-(4-chlorophenyl)-6,7,8,9-tetrahydropyrazino[1,2-a]pyrazolo[3,4-d]pyrimidin-4(1H)-one], the IC50 was 1000 to 10000 nM.

`CCC1Cn2c(nc3c(cnn3C(C)C)c2=O)CN1c1ccc(Cl)cc1` (racemic) [Compound I-155, (±)-8-(4-Chlorophenyl)-7-ethyl-1-isopropyl-6,7,8,9-tetrahydropyrazino[1,2-a]pyrazolo[3,4-d]pyrimidin-4(1H)-one] registered a 50% inhibitory concentration (IC50) of 1000 to 10000 nM.

`CC1Cn2c(nc3c(cnn3C(C)C)c2=O)CN1Cc1cccc(F)c1` (racemic) [Compound I-149, (±)-8-(3-Fluorobenzyl)-1-isopropyl-7-methyl-6,7,8,9-tetrahydropyrazino[1,2-a]pyrazolo[3,4-d]pyrimidin-4(1H)-one]: the IC50 is under 1000 nM.

For `O=c1c2cnc(C3CCCC3)n2nc2n1CCN(Cc1cnccn1)C2` [Compound I-205, 3-Cyclopentyl-7-(pyrazin-2-ylmethyl)-8,9-dihydro-6H-imidazo[5,1-f]pyrazino[2,1-c][1,2,4]triazin-11(7H)-one], the IC50 was under 1000 nM.

`CC(C)Cn1ncc2c(=O)n3c(nc21)CN(c1ccccc1Cl)CC3` [Compound I-86, 8-(2-Chlorophenyl)-1-isobutyl-6,7,8,9-tetrahydropyrazino[1,2-a]pyrazolo[3,4-d]pyrimidin-4(1H)-one] registered an IC50 of 1000 to 10000 nM.

As to `O=c1c2c(Nc3ccccc3)n(Cc3ccccc3)nc2nc2n1CCNC2` [Compound I-59, 2-Benzyl-3-(phenylamino)-6,7,8,9-tetrahydropyrazino[1,2-a]pyrazolo[3,4-d]pyrimidin-4(2H)-one], the IC50 was over 10000 nM.

Molecule `Cc1nn(C2CCCC2)c2nc3n(c(=O)c12)CCN(Cc1ccc(Cl)cc1)C3` [Compound I-111, 8-(4-Chlorobenzyl)-1-cyclopentyl-3-methyl-6,7,8,9-tetrahydropyrazino[1,2-d]pyrazolo[3,4-d]pyrimidin-4(1H)-one] returned an IC50 of over 10000 nM.

Regarding `O=c1c2cnn(C3CCCC3)c2nc2n1CCN(c1ccccc1)C2` [Compound I-95, 1-Cyclopentyl-8-phenyl-6,7,8,9-tetrahydropyrazino[1,2-a]pyrazolo[3,4-d]pyrimidin-4(1H)-one], the IC50 is under 1000 nM.

Molecule `CC(C)Cc1nnc2c(=O)n3c(nn12)CN(Cc1ccc(Cl)cc1)CC3` [Compound I-215, 7-(4-Chlorobenzyl)-3-isobutyl-8,9-dihydro-6H-pyrazino[2,1-c][1,2,4]triazolo[3,4-f][1,2,4]triazin-11(7H)-one] yielded an IC50 of under 1000 nM.

Take `O=c1c2cn[nH]c2nc2n1CCN(Cc1ccccc1)C2` [Compound I-27, 8-Benzyl-6,7,8,9-tetrahydropyrazino[1,2-a]pyrazolo[3,4-d]pyrimidin-4(1H)-one]: the IC50 is over 10000 nM.

With `CC(C)c1ncc2c(=O)n3c(nn12)CN(c1ccc(C(F)(F)F)cc1)CC3` [Compound I-240], the IC50 is under 1000 nM.

For `CC(C)n1ncc2c(=O)n3c(nc21)CN(c1cccc(Cl)c1)CC3` [Compound I-88, 8-(3-Chlorophenyl)-1-isopropyl-6,7,8,9-tetrahydropyrazino[1,2-a]pyrazolo[3,4-d]pyrimidin-4(1H)-one], the IC50 is under 1000 nM.

Regarding `CC(C)n1ncc2c(=O)n3c(nc21)CN(c1ccc(Cl)cn1)CC3` [Compound I-241, 8-(5-Chloropyridin-2-yl)-1-isopropyl-6,7,8,9-tetrahydropyrazino[1,2-a]pyrazolo[3,4-d]pyrimidin-4(1H)-one], the IC50 was under 1000 nM.

With `CC(C)n1ncc2c(=O)n3c(nc21)CN(c1ccc(C(F)(F)F)cc1)CC3` [Compound I-239, 1-Isopropyl-8-(4-(trifluoromethyl)phenyl)-6,7,8,9-tetrahydropyrazino[1,2-a]pyrazolo[3,4-d]pyrimidin-4(1H)-one], the IC50 is under 1000 nM.

Regarding `CC(C)c1nn(C)c2c(=O)n3c(nc12)CN(C)CC3` [Compound I-40, 3-Isopropyl-1,6-dimethyl-5,6,7,8-tetrahydropyrazino[1,2-a]pyrazolo[4,3-d]pyrimidin-10(1H)-one], the IC50 was over 10000 nM.

For the molecule `O=c1c2cnn(C3CCOC3)c2nc2n1CCN(Cc1ccc(Cl)cc1)C2` (racemic) [Compound I-220, (±)-8-(4-Chlorobenzyl)-1-(tetrahydrofuran-3-yl)-6,7,8,9-tetrahydropyrazino[1,2-a]pyrazolo[3,4-d]pyrimidin-4(1H)-one], the IC50 was in the range of 1000 to 10000 nM.

`COc1ccc(CN2CCn3c(nn4c(C(C)C)nnc4c3=O)C2)cc1` [Compound I-222, 3-Isopropyl-7-(4-methoxybenzyl)-8,9-dihydro-6H-pyrazino[2,1-c][1,2,4]triazolo[3,4-f][1,2,4]triazin-11(7H)-one] registered an IC50 of 1000 to 10000 nM.

On to `COc1ccc(CN2CCn3c(nc4c(cnn4C(C)C)c3=O)C2)cc1` [Compound I-82, 1-Isopropyl-8-(4-methoxybenzyl)-6,7,8,9-tetrahydropyrazino[1,2-a]pyrazolo[3,4-d]pyrimidin-4(1H)-one], for which the IC50 was under 1000 nM.

`COc1cccc(N2Cc3nc4c(cnn4C(C)C)c(=O)n3CC2C)c1` (racemic) [Compound I-151, (±)-1-Isopropyl-8-(3-methoxyphenyl)-7-methyl-6,7,8,9-tetrahydropyrazino[1,2-a]pyrazolo[3,4-d]pyrimidin-4(1H)-one]: the IC50 was under 1000 nM.

In the case of `COCCn1ncc2c(=O)n3c(nc21)CN(Cc1ccc(OC)cc1)CC3` [Compound I-158, 8-(4-Methoxybenzyl)-1-(2-methoxyethyl)-6,7,8,9-tetrahydropyrazino[1,2-a]pyrazolo[3,4-d]pyrimidin-4(1H)-one], the IC50 is 1000 to 10000 nM.

Regarding `CC(C)n1ncc2c(=O)n3c(nc21)C(Cc1ccccc1)N(Cc1ccccc1)CC3` (racemic) [Compound I-36, (±)-8,9-Dibenzyl-1-Isopropyl-6,7,8,9-tetrahydropyrazino[1,2-a]pyrazolo[3,4-d]pyrimidin-4(1H)-one], the half-maximal inhibitory concentration (IC50) was over 10000 nM.

With `CCOc1cc(N2CCn3c(nn4c(C5CCCC5)ncc4c3=O)C2)ccc1F` [Compound I-184, 3-Cyclopentyl-7-(3-ethoxy-4-fluorophenyl)-8,9-dihydro-6H-imidazo[5,1-f]pyrazino[2,1-c][1,2,4]triazin-11(7H)-one], the IC50 was under 1000 nM.

Regarding `COc1ccc(CN2CCn3c(nc4c(cnn4CC(C)C)c3=O)C2)cc1` [Compound I-83, 1-Isobutyl-8-(4-methoxybenzyl)-6,7,8,9-tetrahydropyrazino[1,2-a]pyrazolo[3,4-d]pyrimidin-4(1H)-one], the IC50 is under 1000 nM.

As for `COc1ccc(CN2CCc3nc4c(cnn4C(C)C)c(=O)n3CC2)cc1` [Compound I-157, 1-Isopropyl-8-(4-methoxybenzyl)-7,8,9,10-tetrahydro-1H-pyrazolo[3′,4′:4,5]pyrimido[1,2-d][1,4]diazepin-4(6H)-one], the IC50 was over 10000 nM.

On to `CC(C)n1ncc2c(=O)n3c(nc21)CN(c1ccccc1)CC3` [Compound I-55, 1-Isopropyl-8-phenyl-6,7,8,9-tetrahydropyrazino[1,2-a]pyrazolo[3,4-d]pyrimidin-4(1H)-one], for which the 50% inhibitory concentration (IC50) fell in the range of 1000 to 10000 nM.

`Cc1ccc(CN2CCn3c(nn4c(C(C)C)ncc4c3=O)C2)cn1` [Compound I-188, 3-Isopropyl-7-((6-methylpyridin-3-yl)methyl)-8,9-dihydro-6H-imidazo[5,1-f]pyrazino[2,1-c][1,2,4]triazin-11(7H)-one] came in with an IC50 of 1000 to 10000 nM.

Regarding `O=c1c2cnn(C3CCOC3)c2nc2n1CCN(Cc1ccccc1)C2` (racemic) [Compound I-218, (±)-8-Benzyl-1-(tetrahydrofuran-3-yl)-6,7,8,9-tetrahydropyrazino[1,2-a]pyrazolo[3,4-d]pyrimidin-4(1H)-one], the IC50 lay within 1000 to 10000 nM.

For `CC(C)n1ncc2c(=O)n3c(nc21)CNCC3` [Compound I-1, 1-Isopropyl-6,7,8,9-tetrahydropyrazino[1,2-a]pyrazolo[3,4-d]pyrimidin-4(1H)-one], the IC50 was over 10000 nM.

The molecule `CCOc1cccc(N2CCn3c(nn4c(C(C)C)ncc4c3=O)C2)c1` [Compound I-173, 7-(3-Ethoxyphenyl)-3-isopropyl-8,9-dihydro-6H-imidazo[5,1-f]pyrazino[2,1-c][1,2,4]triazin-11(7H)-one] registered an IC50 of under 1000 nM.

Regarding `CC(C)n1ncc2c(=O)n3c(nc21)CN(Cc1ccccc1Cl)CC3` [Compound I-67, 8-(2-Chlorobenzyl)-1-isopropyl-6,7,8,9-tetrahydropyrazino[1,2-a]pyrazolo[3,4-d]pyrimidin-4(1H)-one], the IC50 is under 1000 nM.

On to `CC(C)CN1CCn2c(nc3c(cnn3C(C)C)c2=O)C1` [Compound I-57, 8-Isobutyl-1-isopropyl-6,7,8,9-tetrahydropyrazino[1,2-a]pyrazolo[3,4-d]pyrimidin-4(1H)-one], for which the concentration for half-maximal inhibition (IC50) was over 10000 nM.

Regarding `CC(C)(C)c1ncc2c(=O)n3c(nn12)CN(c1ccc(Cl)cc1)CC3` [Compound I-250, 3-(tert-Butyl)-7-(4-chlorophenyl)-8,9-dihydro-6H-imidazo[5,1-f]pyrazino[2,1-c][1,2,4]triazin-11(7H)-one], the concentration for half-maximal inhibition (IC50) is 1000 to 10000 nM.
